Laboratory results from patent publication US5202315A, “Cephalosporin compounds” (Lucky, Ltd., priority 1989, dated 1993).
Converted amounts (≈) assume the structure as drawn. Read-outs that look alike come from different tables or passages of the source.

How the values were obtained:
[1] = system: Acinetobacter calcoaceticus ATCC 15473; experiment: Antibacterial activity, MIC; format: cell-based; details: ATCC15473, ATCC 15473, agar two-fold dilution, 37° C., 20 hours, read-out: MIC
Method: (§1) Also, the in vitro antibacterial activity was determined by the by a two-fold dilution method as described below:
(§2) That is, the two-fold serial dilutions of the compound were made dispersed in Muller-Hinton agar medium. 2 μl of standard test strain which had the 10^7 CFU per ml was inoculated on the medium, and was incubated at 37° C. for 20 hours.

[2] = system: Bacillus cereus ATCC 11778; experiment: Antibacterial activity, MIC; format: cell-based; details: ATCC11778, ATCC 11778, agar two-fold dilution, 37° C., 20 hours, read-out: MIC
Method: as §1, §2

[3] = system: Citrobacter freundii ATCC 8090; experiment: Antibacterial activity, MIC; format: cell-based; details: ATCC8090, ATCC 8090, agar two-fold dilution, 37° C., 20 hours, read-out: MIC
Method: as §1, §2

[4] = system: Enterobacter aerogenes ATCC 29751; experiment: Antibacterial activity, MIC; format: cell-based; details: Klebsiella aerogenes, ATCC29751; ATCC 29751; agar two-fold dilution, 37° C., 20 hours; read-out: MIC
Method: as §1, §2

[5] = system: Enterobacter cloacae ATCC 27508; experiment: Antibacterial activity, MIC; format: cell-based; details: ATCC27508, ATCC 27508, agar two-fold dilution, 37° C., 20 hours, read-out: MIC
Method: as §1, §2

[6] = system: Escherichia coli ATCC 10536; experiment: Antibacterial activity, MIC; format: cell-based; details: ATCC10536, agar two-fold dilution, 37° C., 20 hours
Method: as §1, §2

[7] = system: Escherichia coli ATCC 25922; experiment: Antibacterial activity, MIC; format: cell-based; details: ATCC25922, agar two-fold dilution, 37° C., 20 hours
Method: as §1, §2

[8] = system: Klebsiella pneumoniae ATCC 10031; experiment: Antibacterial activity, MIC; format: cell-based; details: ATCC10031, ATCC 10031, agar two-fold dilution, 37° C., 20 hours, read-out: MIC
Method: as §1, §2

[9] = system: Micrococcus luteus ATCC 9341; experiment: Antibacterial activity, MIC; format: cell-based; details: ATCC9341, ATCC 9341, agar two-fold dilution, 37° C., 20 hours, read-out: MIC
Method: as §1, §2

[10] = system: Morganella morganii ATCC 8076h; experiment: Antibacterial activity, MIC; format: cell-based; details: ATCC8076H, agar two-fold dilution, 37° C., 20 hours
Method: as §1, §2

[11] = system: Proteus mirabilis ATCC 25933; experiment: Antibacterial activity, MIC; format: cell-based; details: ATCC25933, ATCC 25933, agar two-fold dilution, 37° C., 20 hours, read-out: MIC
Method: as §1, §2

[12] = system: Proteus vulgaris ATCC 6059; experiment: Antibacterial activity, MIC; format: cell-based; details: ATCC6059, ATCC 6059, agar two-fold dilution, 37° C., 20 hours, read-out: MIC
Method: as §1, §2

[13] = system: Providencia rettgeri ATCC 9250; experiment: Antibacterial activity, MIC; format: cell-based; details: ATCC9250, agar two-fold dilution, 37° C., 20 hours
Method: as §1, §2

[14] = system: Pseudomonas aeruginosa ATCC 10145; experiment: Antibacterial activity, MIC; format: cell-based; details: ATCC10145, ATCC 10145, agar two-fold dilution, 37° C., 20 hours, read-out: MIC
Method: as §1, §2

[15] = system: Pseudomonas aeruginosa ATCC 25619; experiment: Antibacterial activity, MIC; format: cell-based; details: ATCC25619, ATCC 25619, agar two-fold dilution, 37° C., 20 hours, read-out: MIC
Method: as §1, §2

[16] = system: Pseudomonas aeruginosa ATCC 27853; experiment: Antibacterial activity, MIC; format: cell-based; details: ATCC27853, ATCC 27853, agar two-fold dilution, 37° C., 20 hours, read-out: MIC
Method: as §1, §2

[17] = system: Salmonella typhimurium ATCC 14028; experiment: Antibacterial activity, MIC; format: cell-based; details: Salmonella enterica; ATCC 14028; agar two-fold dilution, 37° C., 20 hours; read-out: MIC
Method: as §1, §2

[18] = system: Serratia marcescens ATCC 27117; experiment: Antibacterial activity, MIC; format: cell-based; details: ATCC27117, ATCC 27117, agar two-fold dilution, 37° C., 20 hours, read-out: MIC
Method: as §1, §2

[19] = system: Shigella flexneri ATCC 11836; experiment: Antibacterial activity, MIC; format: cell-based; details: ATCC11836, agar two-fold dilution, 37° C., 20 hours
Method: as §1, §2

[20] = system: Shigella sonnei ATCC 11060; experiment: Antibacterial activity, MIC; format: cell-based; details: ATCC11060, ATCC 11060, agar two-fold dilution, 37° C., 20 hours, read-out: MIC
Method: as §1, §2

[21] = system: Staphylococcus aureus ATCC 10537; experiment: Antibacterial activity, MIC; format: cell-based; details: ATCC10537, ATCC 10537, agar two-fold dilution, 37° C., 20 hours, read-out: MIC
Method: as §1, §2

[22] = system: Staphylococcus aureus ATCC 6538p; experiment: Antibacterial activity, MIC; format: cell-based; details: ATCC6538P, ATCC 6538p, agar two-fold dilution, 37° C., 20 hours, read-out: MIC
Method: as §1, §2

[23] = system: Staphylococcus epidermidis ATCC 12228; experiment: Antibacterial activity, MIC; format: cell-based; details: ATCC12228, ATCC 12228, agar two-fold dilution, 37° C., 20 hours, read-out: MIC
Method: as §1, §2

[24] = system: Streptococcus faecalis ATCC 29212; experiment: Antibacterial activity, MIC; format: cell-based; details: Enterococcus faecalis, ATCC29212; ATCC 29212; agar two-fold dilution, 37° C., 20 hours; read-out: MIC
Method: as §1, §2

[25] = In-vivo absorbency (plasma concentrations & pharmacokinetic parameters); set-up: species or system SD rat (male); details: plasma, SD male rat, iv 20 mg/kg; for concentration at 1 h: 60 min; for concentration at 1 h / concentration at 2 h: read-out: Plasma Conc.; for concentration at 2 h: 120 min; for AUC / half-life: two compartment model; for half-life: rat, iv, 20 mg/kg
Excerpt: The blood samples from the femoral vein of the rats were taken every hour after administration, and analyzed by bio-assay(agar well method).
Tested animal: SD male Rat (220~340 g)

[26] = as above; set-up: species or system SD rat (male); details: plasma, SD male rat, iv 20 mg/kg, read-out: Plasma Conc.

CCc1c(N)nc(SCC2=C(C(=O)[O-])N3C(=O)C(NC(=O)/C(=N\OC(C)(C)C(=O)O)c4csc(N)n4)C3SC2)[n+](C)c1N (stereo not drawn) [Compound I-31]
MIC [1]: 8 µg/mL (≈ 12.3 µM) | MIC [2]: 128 µg/mL (≈ 196 µM) | MIC [3]: 0.13 µg/mL (≈ 0.199 µM) | MIC [4]: 2 µg/mL (≈ 3.07 µM) | MIC [5]: 0.016 µg/mL (≈ 0.0245 µM) | MIC [6]: 0.063 µg/mL (≈ 0.0967 µM) | MIC [7]: 0.13 µg/mL (≈ 0.199 µM) | MIC [8]: 0.063 µg/mL (≈ 0.0967 µM) | MIC [9]: 0.5 µg/mL (≈ 0.767 µM) | MIC [10]: ≤ 0.008 µg/mL | MIC [11]: 0.031 µg/mL (≈ 0.0476 µM) | MIC [12]: 0.063 µg/mL (≈ 0.0967 µM) | MIC [13]: ≤ 0.008 µg/mL | MIC [14]: 4 µg/mL (≈ 6.14 µM) | MIC [15]: 1 µg/mL (≈ 1.53 µM) | MIC [16]: 2 µg/mL (≈ 3.07 µM) | MIC [17]: 0.25 µg/mL (≈ 0.384 µM) | MIC [18]: 0.25 µg/mL (≈ 0.384 µM) | MIC [19]: 0.063 µg/mL (≈ 0.0967 µM) | MIC [20]: 0.063 µg/mL (≈ 0.0967 µM) | MIC [21]: 4 µg/mL (≈ 6.14 µM) | MIC [22]: 4 µg/mL (≈ 6.14 µM) | MIC [23]: 2 µg/mL (≈ 3.07 µM) | MIC [24]: > 128 µg/mL | concentration at 1 h [25]: 7700 ng/mL | concentration at 2 h [25]: 1600 ng/mL | AUC [25]: 30500 ng·h/mL | half-life ([25]; read-out: T1/2 (α)): 6 min | half-life ([25]; read-out: T1/2 (β)): 27 min | concentration at 0.5 min [26]: 208000 ng/mL | concentration at 2.5 min [26]: 85000 ng/mL | concentration at 5 min [26]: 62000 ng/mL | concentration at 10 min [26]: 45000 ng/mL | concentration at 20 min [26]: 30000 ng/mL | concentration at 40 min [26]: 14000 ng/mL

CC[n+]1c(SCC2=C(C(=O)[O-])N3C(=O)C(NC(=O)/C(=N\OC(C)(C)C(=O)O)c4csc(N)n4)C3SC2)nc(N)c(C)c1N (stereo not drawn) [Compound I-32]
MIC [1]: 8 µg/mL (≈ 12.3 µM) | MIC [2]: 64 µg/mL (≈ 98.2 µM) | MIC [3]: 0.13 µg/mL (≈ 0.199 µM) | MIC [4]: 2 µg/mL (≈ 3.07 µM) | MIC [5]: 0.016 µg/mL (≈ 0.0245 µM) | MIC [6]: 0.13 µg/mL (≈ 0.199 µM) | MIC [7]: 0.13 µg/mL (≈ 0.199 µM) | MIC [8]: 0.063 µg/mL (≈ 0.0967 µM) | MIC [9]: 0.25 µg/mL (≈ 0.384 µM) | MIC [10]: ≤ 0.008 µg/mL | MIC [11]: 0.031 µg/mL (≈ 0.0476 µM) | MIC [12]: 0.063 µg/mL (≈ 0.0967 µM) | MIC [13]: ≤ 0.008 µg/mL | MIC [14]: 4 µg/mL (≈ 6.14 µM) | MIC [15]: 2 µg/mL (≈ 3.07 µM) | MIC [16]: 2 µg/mL (≈ 3.07 µM) | MIC [17]: 0.25 µg/mL (≈ 0.384 µM) | MIC [18]: 0.13 µg/mL (≈ 0.199 µM) | MIC [19]: 0.031 µg/mL (≈ 0.0476 µM) | MIC [20]: 0.13 µg/mL (≈ 0.199 µM) | MIC [21]: 2 µg/mL (≈ 3.07 µM) | MIC [22]: 4 µg/mL (≈ 6.14 µM) | MIC [23]: 1 µg/mL (≈ 1.53 µM) | MIC [24]: > 128 µg/mL | concentration at 1 h [25]: 7500 ng/mL | concentration at 2 h [25]: 1800 ng/mL | AUC [25]: 30500 ng·h/mL | half-life ([25]; read-out: T1/2 (α)): 3 min | half-life ([25]; read-out: T1/2 (β)): 29 min | concentration at 0.5 min [26]: 162000 ng/mL | concentration at 2.5 min [26]: 75000 ng/mL | concentration at 5 min [26]: 53000 ng/mL | concentration at 10 min [26]: 35000 ng/mL | concentration at 20 min [26]: 21000 ng/mL | concentration at 40 min [26]: 13000 ng/mL

CCc1c(N)nc(SCC2=C(C(=O)[O-])N3C(=O)C(NC(=O)/C(=N\OC(C)(C)C(=O)O)c4csc(N)n4)C3SC2)[n+](CC)c1N (stereo not drawn) [Compound I-33]
MIC [1]: 16 µg/mL (≈ 24 µM) | MIC [2]: 128 µg/mL (≈ 192 µM) | MIC [3]: 0.13 µg/mL (≈ 0.195 µM) | MIC [4]: 4 µg/mL (≈ 6.01 µM) | MIC [5]: 0.031 µg/mL (≈ 0.0466 µM) | MIC [6]: 0.13 µg/mL (≈ 0.195 µM) | MIC [7]: 0.13 µg/mL (≈ 0.195 µM) | MIC [8]: 0.13 µg/mL (≈ 0.195 µM) | MIC [9]: 0.5 µg/mL (≈ 0.751 µM) | MIC [10]: ≤ 0.008 µg/mL | MIC [11]: 0.063 µg/mL (≈ 0.0946 µM) | MIC [12]: 0.13 µg/mL (≈ 0.195 µM) | MIC [13]: ≤ 0.008 µg/mL | MIC [14]: 4 µg/mL (≈ 6.01 µM) | MIC [15]: 2 µg/mL (≈ 3 µM) | MIC [16]: 2 µg/mL (≈ 3 µM) | MIC [17]: 0.5 µg/mL (≈ 0.751 µM) | MIC [18]: 0.5 µg/mL (≈ 0.751 µM) | MIC [19]: 0.063 µg/mL (≈ 0.0946 µM) | MIC [20]: 0.25 µg/mL (≈ 0.375 µM) | MIC [21]: 4 µg/mL (≈ 6.01 µM) | MIC [22]: 4 µg/mL (≈ 6.01 µM) | MIC [23]: 2 µg/mL (≈ 3 µM) | MIC [24]: > 128 µg/mL | concentration at 1 h [25]: 7000 ng/mL | concentration at 2 h [25]: 1200 ng/mL | AUC [25]: 30500 ng·h/mL | half-life ([25]; read-out: T1/2 (α)): 2 min | half-life ([25]; read-out: T1/2 (β)): 24 min | concentration at 0.5 min [26]: 194000 ng/mL | concentration at 2.5 min [26]: 79000 ng/mL | concentration at 5 min [26]: 55000 ng/mL | concentration at 10 min [26]: 36000 ng/mL | concentration at 20 min [26]: 21000 ng/mL | concentration at 40 min [26]: 13000 ng/mL
